Values quoted from earlier work as cited in PMC11068032 (Journal of medicinal chemistry, 2023).

Conditions: cited from earlier work

Question: Which results are given for COc1ccc(C(=O)Nc2ccc(NS(C)(=O)=O)c(OCc3cc(OC)ccc3OC)c2)cc1 [Compound I, N-(3-((2,5-dimethoxybenzyl)oxy)-4-(methylsulfonamido)phenyl)-4-methoxybenzamide]?
Answer: AUC in brain tissue as share of the AUC in plasma: about 2%; half-life: about 1.5 h
